Assay results as given in patent US10646501B2, “Reducing the reproductive capacity of mammals” (priority 2012, dated 2020).

Legend:
[1] = test system: rat pup ovaries (ovarian follicles); test: in vitro ovarian culture bioassay of follicle depletion (ovaries cultured 8 days, histology, follicle counts); assay type: cell-based; set-up: key to Biological activity (ranking, follicle depletion): 1—least chemical reactivity/biological activity; 6—most chemical reactivity/biological activity; settings: for follicle depletion, diepoxide combined with Triptolide / Biological activity (ranking, follicle depletion): diepoxide 30 μM + Trip 5 nM; for Biological activity (ranking, follicle depletion): rank 1 to 6
Excerpt: The biological activity of the epoxides can be evaluated in an in vitro bioassay using rat pup ovaries based on method reported in “Characterization of a rat in vitro ovarian culture system to study the ovarian toxicant 4-vinylcyclohexene diepoxide.” Devine et. al. 2002, Taxicol. Appl. Pharmacol. 184, 107-115, incorporated herein by reference. Biological activity can be determined by follicle counts in ovarian sections after week long culture with micro molar concentrations of the epoxide. In general, biologically active epoxides will also be chemically active as well but not vice versa.
FIGS. 3A, 3B and 3C illustrate an in vitro culture system for evaluating the efficacy of follicle-depletion compositions (developed by Patrick J. Devine). As set forth in the various examples herein, ovaries are cultured with VCD with or without triptolide in serum-free media for 8 days, no gonadotropins present, no media changes and active ingredients added just once at start of culture. Ovaries are collected and processed for histology to perform follicle counting.
In vitro bioassay of follicle depletion, ovaries cultured for 8 days with different chemicals
Control—no chemicals, Triptolide—5 nM (Trip), Diepoxides. RDE, CHDE, Quetol, ERL 4221, BDE, GDE, each at 30 μM+Trip 5 nM
Ovaries were prepared for histological analysis for determination of follicle depletion

[2] = epoxide assay of chemical reactivity (alkylating assay using 4-(p-nitrobenzyl) pyridine); assay type: physicochemical; set-up: key to Chemical reactivity (ranking): 1—least chemical reactivity/biological activity; 6—most chemical reactivity/biological activity; settings: for Chemical reactivity (ranking): reactivity in epoxide assay, rank 1 to 6
Excerpt: The chemical reactivity of the epoxides can determined in an alkylating assay using 4-(p-nitrobenzyl) pyridine (NBP) based on the method reported in “Detection of epoxides with 4-(p-nitrobenzyl) pyridine.” Agarwal et. al. 1979, Bull. Environm. Contam. Toxicol. 23, 825-829, incorporated herein by reference.
Compared chemical (reactivity in epoxide assay) to biological activity (follicle depletion)

male rat fertility = settings: oral exposure; cited from earlier work
[3] = test system: Sprague Dawley rats (Rattus norvegicus); settings: via gavage; cited from earlier work
ovarian failure = test: VCD alone as the only active ingredient, premature ovarian failure; assay type: in vivo; settings: low concentrations or short exposure durations <15 days
Excerpt: Premature ovarian failure is when no more ovulations occur in spite of eggs/follicles being present in an ovary. For compositions and methods to function as a means of population control, the ovarian failure desirably occurs rapidly, for example within 10 days of treatment for rodents.

[4] = 30 μm VCD alone, cultured ovary, 8 days

| SMILES | follicle depletion, diepoxide combined with Triptolide ([1]; ovaries cultured 8 days) | Biological activity (ranking, follicle depletion) ([1]; ovaries cultured 8 days) | Chemical reactivity (ranking) [2] | also measured |
| --- | --- | --- | --- | --- |
| C(CCOCC1CO1)COCC1CO1 (centres unmarked) [BDE, 1,4-butanediol diglycidyl ether] | caused significant follicle depletion | 3 | 6 |  |
| C1CC(COCC2CO2)CCC1COCC1CO1 (centres unmarked) [CHDE, 1,4-cyclohexanedimethanol diglycidyl ether] | caused significant follicle depletion | 4 | 3 |  |
| O=C(OCC1CCC2OC2C1)C1CCC2OC2C1 (centres unmarked) [ERL 4221, 3,4-epoxy-cyclohexyl-methyl-3,4-epoxycyclohexyl carboxylate] | caused significant follicle depletion | 6 | 1 | biological activity in words ([1]; when combined with Trip, among the six diepoxides): most biologically active; chemical reactivity in words ([2]; among the six diepoxides): least chemically reactive |
| OCC(COCC1CO1)OCC1CO1 (centres unmarked) [GDE, glycerol diglycidyl ether] | caused significant follicle depletion | 2 | 5 |  |
| C(COCC1CO1)OCC1CO1 (centres unmarked) [Quetol, ethylene glycol diglycidyl ether] | caused significant follicle depletion | 5 | 2 |  |
| Oc1cccc(OCC2CO2)c1 (centres unmarked) [RDE, resorcinol glycidyl ether] | did not cause significant follicle depletion | 1 | 4 |  |
| CC(C)[C@]12O[C@H]1[C@@H]1O[C@]13[C@]1(O[C@H]1C[C@H]1C4=C(CC[C@@]13C)C(=O)OC4)[C@@H]2O [Triptolide, triptolide] |  |  |  | effect on male rat fertility (male rat fertility): compromise male rat fertility to ultimate sterility; follicle depletion, triptolide alone ([1]; Triptolide 5 nM alone, ovaries cultured 8 days): did not cause significant follicle depletion |
| C1CC2OC2CC1C1CO1 (centres unmarked) [VCD, 4-vinylcyclohexene diepoxide] |  |  |  | primordial follicle depletion [3]: efficacious to cause non-regenerating primordial follicle depletion; effect on the other stages of follicles [1, 4]: not significantly affected; reduction in primordial follicles [1, 4]: 38%; premature ovarian failure (ovarian failure): did not cause premature ovarian failure |
